The values below come from PMC9354638, “Targeting p21-activated kinase 4 (PAK4) with pyrazolo[3,4-d]pyrimidine derivative SPA7012 attenuates hepatic ischaemia-reperfusion injury in mice” (Journal of Enzyme Inhibition and Medicinal Chemistry, 2022).

Entries after “also recorded” stand apart in the source; their conditions may differ.

For series [1], the system named is C57BL/6 male mice with hepatic I/R injury. In words: Model of partial hepatic I/R injury in mice. It counts as in vivo, mouse. On the procedure: Pathogen-free 8 to 10-week old C57BL/6 male mice (Orient Bio, Seoul, Korea) were kept under a 12-h light/dark cycle with controlled humidity of 50% at 22 °C, and had free access to food and water. Hepatic I/R injury was created using the following method.[15] Mice were anaesthetised with ketamine (100 mg/kg) and xylazine (10 mg/kg) by intraperitoneal injection. A midline incision was performed, and an atraumatic clip was placed across the portal vein, hepatic artery, and bile duct just above the right branch. Blood flow was interrupted to the left lateral and median lobes, which represent approximately 70% of the total blood supply to the liver. The liver was kept moist with a gauze soaked in saline, and body temperature was maintained at 37 °C with a warm blanket throughout ischaemia. After 60 min of partial hepatic ischaemia, the clip was removed to initiate reperfusion. The sham mice underwent the same operation without vascular occlusion. After the desired time period of reperfusion, the mice were euthanised by exsanguination under anaesthesia and serum samples were collected. The left lateral and median lobes of the liver were collected and stored at −80 °C until further analysis, or were immediately fixed in 10% formalin. All animal experiments were performed in accordance with the Guide for the Care and Use of Laboratory Animals published by the US National Institutes of Health (NIH Publication No. 85–23, revised 2011). The study protocol was approved by the Institutional Animal Care and Use Committee of Jeonbuk National University (permit number: JBNU-2019–00122).
Alanine aminotransferase (ALT) and aspartate aminotransferase (AST) in serum (Asan Pharm, Seoul, Korea), glutathione (GSH, Arbour Assays, Ann Arbour, MI, USA), malondialdehyde (MDA, ab118970, Abcam, Cambridge, UK) in liver tissues, and lactate dehydrogenase (LDH, Biovision, Milpitas, CA, USA) in culture medium were analysed using specific kits. Serum levels of IL-1β, IL-6, TNF-α, and CCL-2 were detected using ELISA kits (all from Invitrogen).
Total RNA was extracted from frozen liver tissues or primary hepatocytes using TRIzol reagent (Invitrogen). RNA was treated with isopropanol, dried using 70% ethanol, and dissolved in diethyl pyrocarbonate-treated distilled water. First-strand cDNA was generated using the random hexamer primer provided in the first-strand cDNA synthesis kit (Applied Biosystems, Foster City, CA, USA). Specific primers were designed using PrimerBank (https://pga.mgh.harvard.edu/primerbank, Table 1). qPCR reactions were performed in a final volume of 10μ L containing 10 ng reverse-transcribed total RNA, 200 nM forward and reverse primers, and PCR master mixture. qPCR was performed in 384-well plates using an ABI Prism™ 7900HT Sequence Detection System (Applied Biosystems).
Nuclear and cytoplasmic fractions were prepared using the NE-PER Nuclear and Cytoplasmic Extraction kit (Thermo Fisher Scientific, Waltham, MA, USA). Tissue homogenates or cell lysates (15 μg) were separated by 6–14% SDS-PAGE and transferred to PVDF membranes. After blocking with 5% skim milk, blots were probed with primary antibodies against: PAK4 (G222), p-PAK4 (S474), p-IKKβ (S176/180), p-IκBα (S32), p-p65 (S536), cleaved caspase-3 (Asp175), Bax (Cell Signalling Technology, Beverly, MA, USA), GAPDH (A531), lamin B1(L75), Bcl2(P65), NQO1 (F252) (Bioworld Technology, St Louis Park, MN, USA), NF-κB p65 (C-20), IKBα (H-4), IKKβ (10A9B6) (Santa Cruz Biotechnology, Dallas, TX, USA), Nrf2 (Proteintech, Rosemont, IL, USA), HO-1 (Enzo Life Sciences, Farmingdale, New York, USA), and p-Thr (Merck KGaA, Darmstadt, Germany). For co-immunoprecipitations, 600 μg protein was incubated with anti-Nrf2 antibodies (Proteintech, Sankt Leon-Rot, Germany) overnight at 4 °C followed by protein G agarose for 2 h at 4 °C. Blots were probed with antibodies against PAK4, Nrf2, or p-Thr. Immunoreactive bands were detected with a Las-4000 imager (GE Healthcare Life Science, Pittsburgh, PA, USA). […]

For another series, the system named is primary hepatocytes. In words: MTT assay for cell viability. The note with it: SPA7012 at a concentration of less than 1 μM. It counts as cell-based, mouse. The procedure:
Primary hepatocytes were prepared from 8 to 10 week old C57BL/6 male mice by perfusion. […] Hepatocytes were resuspended in DMEM/F12 supplemented with 10% FBS, 10 units/mL penicillin, 10 μg/mL streptomycin, and 10 nM dexamethasone mixed with 42% Percoll, and then centrifuged for 5 min at 1,300 rpm. The cells were plated at 1 × 10^6 cells/well in 6-well culture dishes.
Cell viability was determined by analysing the reduction of 3–(4, 5-dimethylthiazol-2-yl)-2, 5-diphenyltetrazolium bromide (MTT) to formazan.
(In general: Tetrazolium dyes change colour on reduction, which living cells bring about.)

The mark [2] stands for this setting: 50 mg/kg intraperitoneal before and during I/R, 1 h ischaemia, 6 h or 24 h reperfusion, vs I/R group.

`Cc1nn(-c2cccc(C#CC3(O)CCCCC3)c2)c2ncnc(N)c12` [Compound 14b, 3-(4-Amino-3-methylpyrazolo[3,4-d]pyrimidin-1-yl)phenylethynylcyclohexan-1-ol]: in series [1] (setting [2]), the “Serum ALT level” value is given as “significantly decreased” and the “Serum AST level” value is “significantly decreased”. For the same compound, the “Inflammatory cell infiltration (F4/80-positive macrophages, Ly6G-positive neutrophils) in liver” value in series [1] (50 mg/kg, 24 h after reperfusion, listed as SPA7012) is recorded as “decreased; also recorded: drastic reduction”. Further, the “Cytokine production (TNF-α, IL-1β, IL-6, CCL-2; serum protein and liver mRNA)” value in series [1] (50 mg/kg, I/R injured mice) is reported as “decreased”. In series [1] (50 mg/kg, Western blotting), the “Phosphorylation levels of IKKβ and p65 in liver” value is listed as “substantially decreased”; the “Protein levels of IκBα in liver” value is on record as “increased”. The “Nuclear level of Nrf2 in I/R injured liver tissues” value in series [1] (50 mg/kg, Western blotting of nuclear extracts, listed as SPA7012) was “considerably increased”. For the same compound, in series [1] (50 mg/kg, vs I/R group), the “4-HNE-positive cells in liver tissues” value is listed as “significantly lower”, the “Area of necrosis in liver (H&E)” value is reported as “significantly smaller”, the “Hepatic levels of GSH” value is “significantly higher” and the MDA level result is on record as “significantly lower”. In series [1] (50 mg/kg, vs I/R group), the “TUNEL-positive apoptotic cells in liver tissues” value is listed as “significant reduction”. The “Total- and phospho-protein levels of PPARγ, PTEN, Akt, and GSK-3β” value in series [1] (following SPA7012 treatment, data not shown) is reported as “no changes”. Besides, the “Effect on cell viability (MTT)” value with primary hepatocytes is listed as “little effect”.
